Experimental data taken from patent publication US5863944A, “Compounds and compositions for delivering active agents” (Emisphere Technologies, Inc., priority 1997, dated 1999).
≈ marks a conversion by molar mass, not a printed value.

Experiment: Carrier properties: solubility
Type: physicochemical
Conditions: for Solubility (appearance): 200 mg/mL

Q: Which results are given for Nc1ccc(F)cc1C(=O)NCCCCCCCC(=O)O [Compound 1, N-(2-Amino-5-fluorobenzoyl)-8-aminocaprylic Acid]?
A: Solubility (appearance) (pH = 8.7): slightly milky; solubility (pH 8.7): 200 mg/mL (≈ 675 mM)

Q: What does the source list for Nc1ccc(F)cc1C(=O)Nc1ccc(CCCC(=O)O)cc1 [Compound 2, 4-(N-(2-amino-5-fluorobenzoyl)-4-aminophenyl)butyric]?
A: Solubility (appearance) (pH = 8.44): milky suspension; solubility (pH 8.44): 200 mg/mL (≈ 632 mM)

Q: For O=C(O)CCCCCCCC(=O)Nc1cc(Cl)ccc1O [Compound 3, 8-(2-hydroxy-5-chloroanilinocarbonyl)octanoic acid], which “Solubility (appearance)” value (pH = 8.28) is on record?
A: The value was “soluble”.

Q: What about the solubility (soluble at pH = 8.28) of the same compound?
A: The solubility was 200 mg/mL (≈ 637 mM).
